From patent US20230365592A1 (Agios Pharmaceuticals, Inc., priority 2022, published 2023)

Target: T1, human PAH with the R408W mutation (Homo sapiens, UniProt P00439, R408W)
T1 construct: expressed in transfected cells
T1 sequence (P00439 1-452 R408W): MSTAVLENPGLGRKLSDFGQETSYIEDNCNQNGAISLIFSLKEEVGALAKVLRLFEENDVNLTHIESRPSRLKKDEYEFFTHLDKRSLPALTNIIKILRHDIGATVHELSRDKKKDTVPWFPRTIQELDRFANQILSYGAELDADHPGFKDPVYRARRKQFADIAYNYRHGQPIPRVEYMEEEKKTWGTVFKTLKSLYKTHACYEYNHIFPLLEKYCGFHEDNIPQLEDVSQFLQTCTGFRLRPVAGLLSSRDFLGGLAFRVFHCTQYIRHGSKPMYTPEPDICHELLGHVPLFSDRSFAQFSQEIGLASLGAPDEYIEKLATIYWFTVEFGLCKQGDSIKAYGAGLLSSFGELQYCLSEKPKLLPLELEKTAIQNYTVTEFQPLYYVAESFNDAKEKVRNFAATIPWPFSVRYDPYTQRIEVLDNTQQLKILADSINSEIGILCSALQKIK
Test: Cell Based Phenylalanine Flux Assay;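 further: after compound treatment, cells received sepiapterin plus isotope-labelled Phenylalanine for 4 hours, then labelled Tyrosine in the medium was quantified, 10-point 2-fold dilution series run in duplicate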
Conditions: A375 cells expressing R408W PAH; 24 hrs with compound, then 20 µM sepiapterin and 800 µM 13C9,15N-Phenylalanine for 4 hours; 13C-Tyrosine by LC-MS; average where tested multiple times; read-out: AC50

SMILES | AC50 [µM]
c1cncc(-c2nnc(N3CCc4[nH]cnc4C3c3cc4ccccn4n3)o2)c1 (stereo not drawn) | 1 to 5
Cc1cccn2nc(C3c4nc[nH]c4CCN3C(=O)c3cnn4cc(N5CCOCC5)ccc34)cc12 (stereo not drawn) | 1 to 5
CC(C)(O)c1cc(C(=O)N2CCc3[nH]cnc3C2c2cc3ccccn3n2)on1 (stereo not drawn) | 1 to 5
CC(C)c1cccn2nc(C3c4nc[nH]c4CCN3c3cnccn3)cc12 (stereo not drawn) | > 5
O=C(c1nnc(-c2ccc(C(F)(F)F)cn2)o1)N1CCc2[nH]cnc2C1c1cc2ccccn2n1 (stereo not drawn) | > 5
Cc1cccn2nc([C@H]3c4nc[nH]c4CCN3c3nnc(-c4cccnc4)o3)cc12 (single isomer, unassigned) | > 5
COc1cccn2nc(C3c4nc[nH]c4CCN3C(=O)c3nnc(-c4cnccn4)o3)cc12 (stereo not drawn) | 1 to 5
Cn1ccc(-c2ncc(C(=O)N3CCc4[nH]cnc4C3c3cc4ccccn4n3)o2)n1 (stereo not drawn) | > 5
Cc1c(C2c3nc[nH]c3CCN2C(=O)c2nnc(-c3ccn(C)n3)o2)nn2ccccc12 (stereo not drawn) | > 5
Cc1nnc(C(=O)N2CCc3[nH]cnc3[C@@H]2c2cc3cccc(C(F)(F)F)n3n2)o1 (single isomer, unassigned) | 1 to 5
O=C(c1nnc(NC2CC2)o1)N1CCc2[nH]cnc2C1c1cc2ccccn2n1 (stereo not drawn) | 1 to 5

Same assay, conditions: A375 cells expressing human PAH R408W; 24 hrs compound incubation; 13C-Tyrosine by LC-MS; average where tested multiple times; read-out: AC50

SMILES | AC50 [µM]
Nc1cnc(N2CCc3[nH]cnc3[C@@H]2c2cc3c(Cl)cccn3n2)nc1 [Example 1872, (R)-2-(4-(4-chloropyrazolo[1,5-a]pyridin-2-yl)-1,4,6,7-tetrahydro-5H-imidazo[4,5-c]pyridin-5-yl)pyrimidin-5-amine] | > 5
COc1ccc2c(C(=O)N3CCc4[nH]cnc4[C@@H]3c3cc4c(C)cccn4n3)cnn2c1 [Example 2451, (R)-(6-methoxypyrazolo[1,5-a]pyridin-3-yl)(4-(4-methylpyrazolo[1,5-a]pyridin-2-yl)-6,7-dihydro-1H-imidazo[4,5-c]pyridin-5(4H)-yl)methanone] | > 5
Fc1cccc(F)c1-c1nnc(N2CCc3[nH]cnc3[C@@H]2c2cc3c(C(F)F)cccn3n2)o1 [Example 1862, (R)-2-(4-(4-(difluoromethyl)pyrazolo[1,5-a]pyridin-2-yl)-1,4,6,7-tetrahydro-5H-imidazo[4,5-c]pyridin-5-yl)-5-(2,6-difluorophenyl)-1,3,4-oxadiazole] | > 5
O=C(c1nnc(-c2cnn(C(F)(F)F)c2)o1)N1CCc2[nH]cnc2[C@@H]1c1cc2ccccn2n1 [Example 2427, (R)-(4-(pyrazolo[1,5-a]pyridin-2-yl)-6,7-dihydro-1H-imidazo[4,5-c]pyridin-5(4H)-yl)(5-(1-(trifluoromethyl)-1H-pyrazol-4-yl)-1,3,4-oxadiazol-2-yl)methanone] | > 5
Cn1nc(C(F)F)nc1C(=O)N1CCc2[nH]cnc2[C@H]1c1cc2cc(C(F)(F)F)ccn2n1 [Example 2410, (S)-(3-(difluoromethyl)-1-methyl-1H-1,2,4-triazol-5-yl)(4-(5-(trifluoromethyl)pyrazolo[1,5-a]pyridin-2-yl)-6,7-dihydro-1H-imidazo[4,5-c]pyridin-5(4H)-yl)methanone] | 0.5 to 1

Same assay, conditions: A375 cells expressing human R408W PAH; 24 hrs compound incubation; 13C-Tyrosine by LC-MS; average where tested multiple times; read-out: AC50

SMILES | AC50 [µM]
COc1ccc2c(C(=O)N3CCc4[nH]cnc4[C@H]3c3cc4c(C(F)(F)F)cccn4n3)cnn2c1 [Example 1674, (S)-(6-methoxypyrazolo[1,5-a]pyridin-3-yl)(4-(4-(trifluoromethyl)pyrazolo[1,5-a]pyridin-2-yl)-6,7-dihydro-1H-imidazo[4,5-c]pyridin-5(4H)-yl)methanone] | 0.5 to 1
O=C(c1ocnc1C(F)F)N1CCc2[nH]cnc2[C@@H]1c1cc2c(C(F)(F)F)cccn2n1 [Example 1003, (R)-(4-(difluoromethyl)oxazol-5-yl)(4-(4-(trifluoromethyl)pyrazolo[1,5-a]pyridin-2-yl)-6,7-dihydro-1H-imidazo[4,5-c]pyridin-5(4H)-yl)methanone] | 0.5 to 1
O=C(c1nnc(-c2ccccn2)o1)N1CCc2[nH]cnc2[C@@H]1c1cc2cccc(F)n2n1 [Example 974, (R)-(4-(7-fluoropyrazolo[1,5-a]pyridin-2-yl)-6,7-dihydro-1H-imidazo[4,5-c]pyridin-5(4H)-yl)(5-(pyridin-2-yl)-1,3,4-oxadiazol-2-yl)methanone] | 1 to 5
FC(F)c1cccn2nc([C@@H]3c4nc[nH]c4CCN3c3ncc(C(F)(F)F)cn3)cc12 [Example 1776, (S)-4-(4-(difluoromethyl)pyrazolo[1,5-a]pyridin-2-yl)-5-(5-(trifluoromethyl)pyrimidin-2-yl)-4,5,6,7-tetrahydro-1H-imidazo[4,5-c]pyridine] | < 0.5
Cc1cnn(C)c1-c1nnc(C(=O)N2CCc3[nH]cnc3[C@@H]2c2cc3c(C)cccn3n2)o1 [Example 927, (R)-(5-(1,4-dimethyl-1H-pyrazol-5-yl)-1,3,4-oxadiazol-2-yl)(4-(4-methylpyrazolo[1,5-a]pyridin-2-yl)-6,7-dihydro-1H-imidazo[4,5-c]pyridin-5(4H)-yl)methanone] | > 5
CC(C)(F)c1nnc(C(=O)N2CCc3[nH]cnc3[C@H]2c2cc3ccc(F)cn3n2)o1 [Example 1114, (S)-(5-(2-fluoropropan-2-yl)-1,3,4-oxadiazol-2-yl)(4-(6-fluoropyrazolo[1,5-a]pyridin-2-yl)-6,7-dihydro-1H-imidazo[4,5-c]pyridin-5(4H)-yl)methanone] | 0.5 to 1
Cn1nc(Cl)nc1C(=O)N1CCc2[nH]cnc2[C@@H]1c1cc2ccccn2n1 [Example 695, (R)-(3-chloro-1-methyl-1H-1,2,4-triazol-5-yl)(4-(pyrazolo[1,5-a]pyridin-2-yl)-6,7-dihydro-1H-imidazo[4,5-c]pyridin-5(4H)-yl)methanone] | > 5
O=C(CC1(O)CCC1)N1CCc2[nH]cnc2[C@@H]1c1cc2ccccn2n1 [Example 635, (R)-2-(1-hydroxycyclobutyl)-1-(4-(pyrazolo[1,5-a]pyridin-2-yl)-6,7-dihydro-1H-imidazo[4,5-c]pyridin-5(4H)-yl)ethanone] | 1 to 5
Cn1cc(-c2nnc(C(=O)N3CCc4[nH]cnc4[C@@H]3c3cc4c(Cl)cccn4n3)o2)cn1 [Example 689, (R)-(4-(4-chloropyrazolo[1,5-a]pyridin-2-yl)-6,7-dihydro-1H-imidazo[4,5-c]pyridin-5(4H)-yl)(5-(1-methyl-1H-pyrazol-4-yl)-1,3,4-oxadiazol-2-yl)methanone] | > 5
C[C@@H](O)c1nc(C(F)F)c(C(=O)N2CCc3[nH]cnc3[C@H]2c2cc3cccc(C(F)(F)F)n3n2)o1 [Example 1180, (4-(difluoromethyl)-2-((R)-1-hydroxyethyl)oxazol-5-yl)((S)4-(7-(trifluoromethyl)pyrazolo[1,5-a]pyridin-2-yl)-6,7-dihydro-1H-imidazo[4,5-c]pyridin-5(4H)-yl)methanone] | 0.5 to 1
Cc1cccn2nc([C@@H]3c4nc[nH]c4CCN3C(=O)c3oc(C(C)(C)O)nc3C(F)F)cc12 [Example 736, (S)-(4-(difluoromethyl)-2-(2-hydroxypropan-2-yl)oxazol-5-yl)(4-(4-methylpyrazolo[1,5-a]pyridin-2-yl)-6,7-dihydro-1H-imidazo[4,5-c]pyridin-5(4H)-yl)methanone] | < 0.5
Cn1ccc(-c2nnc(C(=O)N3CCc4[nH]cnc4[C@@H]3c3cc4ccc(F)cn4n3)o2)n1 [Example 1103, (R)-(4-(6-fluoropyrazolo[1,5-a]pyridin-2-yl)-6,7-dihydro-1H-imidazo[4,5-c]pyridin-5(4H)-yl)(5-(1-methyl-1H-pyrazol-3-yl)-1,3,4-oxadiazol-2-yl)methanone] | > 5
Cn1cc(-c2nnc(C(=O)N3CCc4[nH]cnc4[C@@H]3c3cc4cccc(F)n4n3)o2)cn1 [Example 1225, (R)-(4-(7-fluoropyrazolo[1,5-a]pyridin-2-yl)-6,7-dihydro-1H-imidazo[4,5-c]pyridin-5(4H)-yl)(5-(1-methyl-1H-pyrazol-4-yl)-1,3,4-oxadiazol-2-yl)methanone] | 1 to 5
Cc1cccc2cc([C@@H]3c4nc[nH]c4CCN3C(=O)c3nnc(-c4ccccn4)o3)nn12 [Example 798, (S)-(4-(7-methylpyrazolo[1,5-a]pyridin-2-yl)-6,7-dihydro-1H-imidazo[4,5-c]pyridin-5(4H)-yl)(5-(pyridin-2-yl)-1,3,4-oxadiazol-2-yl)methanone] | < 0.5
O=C(c1nnc(-c2cnn(C(F)F)c2)o1)N1CCc2[nH]cnc2[C@@H]1c1cc2c(C(F)F)cccn2n1 [Example 1375, (R)-(5-(1-(difluoromethyl)-1H-pyrazol-4-yl)-1,3,4-oxadiazol-2-yl)(4-(4-(difluoromethyl)pyrazolo[1,5-a]pyridin-2-yl)-6,7-dihydro-1H-imidazo[4,5-c]pyridin-5(4H)-yl)methanone] | > 5
CC(C)(O)c1nc(C(F)F)c(C(=O)N2CCc3[nH]cnc3[C@H]2c2cc3ccccn3n2)o1 [Example 670, (S)-(4-(difluoromethyl)-2-(2-hydroxypropan-2-yl)oxazol-5-yl)(4-(pyrazolo[1,5-a]pyridin-2-yl)-6,7-dihydro-1H-imidazo[4,5-c]pyridin-5(4H)-yl)methanone] | < 0.5
Cc1cccc2cc([C@@H]3c4nc[nH]c4CCN3C(=O)c3nc(Cl)nn3C)nn12 [Example 1086, (S)-(3-chloro-1-methyl-1H-1,2,4-triazol-5-yl)(4-(7-methylpyrazolo[1,5-a]pyridin-2-yl)-6,7-dihydro-1H-imidazo[4,5-c]pyridin-5(4H)-yl)methanone] | < 0.5
